What was measured:
caspase-6 = caspase-6 (Homo sapiens, UniProt P55212); experiment: biochemical
Protocol: Caspase-6 enzyme assay: The in vitro enzymatic caspase-6 assays utilize synthetic tetrapeptide
substrates labeled with either Rhodamine110 (R110) or 7-Amino-4-(trifluoromethyl)coumarin (AFC)
at the P1 aspartic acid (Asp) residue, as described.3 Briefly, assays were performed in 384-well plates
consisting of caspase-6, VEID-Rh110 or Ac-VEID-AFC and indicated concentration of inhibitor or
DMSO in assay buffer (50 mM HEPES pH 8.0, 100 mM NaCl, 1 mM EDTA, and 500 M ME).
All inhibitors were serially diluted in 100% DMSO prior to dilution in assay buffer and transfer to
assay plate, for a final DMSO concentration of 1%. Compound and protein were preincubated for 15 minutes prior to addition of substrate. The reaction plate was incubated at room temperature for 30
minutes and then read on an Envision (Perkin Elmer) fluorescent plate reader at excitation/emission
wavelengths of 485/535 nm (R110) or 395/495 nm (AFC). Data were processed to generate dose-
response curves and analyzed using a nonlinear curve fit with variable slope in Prism software

caspase-2 (C2) = caspase-2 (C2) (Homo sapiens, UniProt P42575); experiment: Caspase-2 biochemical activity assay with fluorogenic substrate
Text: (§1) Error bars represent the standard deviation of thre replicate measurements. […] Activity measured by the cleavage of aminofluorocoumarin-labeled peptides (see the Supporting Information for sequences). C = caspase.

caspase-3 (C3) = target: T1, caspase-3 (C3) (Homo sapiens, UniProt P42574); experiment: Caspase-3 biochemical activity assay with fluorogenic substrate
T1 sequence (P42574 29-175 limits assumed): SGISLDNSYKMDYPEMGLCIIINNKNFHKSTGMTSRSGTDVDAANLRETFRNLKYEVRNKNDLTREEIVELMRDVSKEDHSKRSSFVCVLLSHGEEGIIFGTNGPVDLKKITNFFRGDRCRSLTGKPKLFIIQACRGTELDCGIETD
Text: as §1

[1] = test system: lamin A cleavage by caspase-6 in SK-N-AS cells; experiment: Lamin cleavage assay (in-cell western after staurosporine induction); format: cell-based; details: Homo sapiens, 1 h compound then staurosporine 3 h
Protocol: This assay measured lamin A cleavage under staurosporine-induced caspase activation; while staurosporine activates all executioner caspases, lamin A cleavage monitors only the activity of C6. After 1 h of preincubation with the compound and 3 h of incubation with staurosporine, lamin A cleavage was measured by in-cell western.
Inhibition of lamin A cleavage in SK-N-AS cells after staurosporine induction of caspases. Cells were treated with the indicated compound for 1 h before the addition of 10 μM staurosporine for 4 h. Error bars indicate the standard deviation from n = 4 replicate samples.
serves as a useful target-engagement assay in cells. We used the procedure of Mintz, et al, with the following modifications: SK-N-AS cells were seeded at 10,000 cells/well in black clear bottom 384-
well plates coated with poly-D-lysine and allowed to adhere overnight. Wells were treated with
varying doses of casapase-6 inhibitor, from 5 µM – 0.1 nM in 2-fold dilutions. After one hour, cells
were treated with 10 µM staurosporine to induce apoptosis and activation of multiple caspases. 3
hours after staurosporine addition, cells were fixed and permeabilized before in-cell westerns were
performed, as described.9

human caspases C1–C10 = experiment: Caspase selectivity assays (Eurofins/Panlabs), 10 µM 3a; format: biochemical; details: 3a at 10 μM
[2] = target: proteins of HEK293T cells transiently overexpressing caspase-6 (Homo sapiens, UniProt P39748); experiment: SILAC proteomics / in-gel fluorescence, competition of probe 13-t labeling by 3a; details: Comp; protein FEN1 P39748
Chain of proteins of HEK293T cells transiently overexpressing caspase-6 (Homo sapiens, UniProt P39748) (P39748 whole entry): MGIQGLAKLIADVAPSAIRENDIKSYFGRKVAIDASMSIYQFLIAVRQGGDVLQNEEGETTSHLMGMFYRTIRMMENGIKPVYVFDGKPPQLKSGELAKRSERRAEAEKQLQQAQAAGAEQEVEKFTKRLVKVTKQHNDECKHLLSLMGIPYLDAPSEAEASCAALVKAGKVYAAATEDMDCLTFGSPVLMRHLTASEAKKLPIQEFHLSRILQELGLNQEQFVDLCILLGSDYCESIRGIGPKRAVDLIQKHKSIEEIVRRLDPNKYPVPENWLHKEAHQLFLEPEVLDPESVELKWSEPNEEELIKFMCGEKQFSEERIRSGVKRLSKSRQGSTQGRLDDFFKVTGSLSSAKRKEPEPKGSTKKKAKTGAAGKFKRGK

[3] = target: proteins of HEK293T cells transiently overexpressing caspase-6 (Homo sapiens, UniProt Q12905); experiment: as above; details: Comp; protein ILF2 Q12905
Chain of proteins of HEK293T cells transiently overexpressing caspase-6 (Homo sapiens, UniProt Q12905) (Q12905 whole entry): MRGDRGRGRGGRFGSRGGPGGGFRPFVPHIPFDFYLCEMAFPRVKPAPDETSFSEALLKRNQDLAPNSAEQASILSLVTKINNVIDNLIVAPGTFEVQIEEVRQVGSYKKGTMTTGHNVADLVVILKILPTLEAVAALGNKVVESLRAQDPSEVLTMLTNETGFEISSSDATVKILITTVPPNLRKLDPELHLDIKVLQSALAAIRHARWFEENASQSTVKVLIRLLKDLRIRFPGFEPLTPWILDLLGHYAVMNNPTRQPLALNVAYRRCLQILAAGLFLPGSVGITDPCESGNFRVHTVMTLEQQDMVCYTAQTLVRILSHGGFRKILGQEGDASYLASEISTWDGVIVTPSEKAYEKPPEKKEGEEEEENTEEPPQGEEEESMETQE

[4] = target: proteins of HEK293T cells transiently overexpressing caspase-6 (Homo sapiens, UniProt P12004); experiment: as above; details: Comp; protein PCNA P12004
Chain of proteins of HEK293T cells transiently overexpressing caspase-6 (Homo sapiens, UniProt P12004) (P12004 whole entry): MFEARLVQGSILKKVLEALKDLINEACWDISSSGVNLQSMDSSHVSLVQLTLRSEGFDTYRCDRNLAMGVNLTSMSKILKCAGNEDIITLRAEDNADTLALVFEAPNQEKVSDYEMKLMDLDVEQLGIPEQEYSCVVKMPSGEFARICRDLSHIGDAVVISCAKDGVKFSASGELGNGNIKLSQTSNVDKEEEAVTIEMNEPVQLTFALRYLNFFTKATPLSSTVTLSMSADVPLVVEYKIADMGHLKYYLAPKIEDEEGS

[5] = target: proteins of HEK293T cells transiently overexpressing caspase-6 (Homo sapiens, UniProt Q07666); experiment: as above; details: Comp; protein KHDRBS1 Q07666
Chain of proteins of HEK293T cells transiently overexpressing caspase-6 (Homo sapiens, UniProt Q07666) (Q07666 whole entry): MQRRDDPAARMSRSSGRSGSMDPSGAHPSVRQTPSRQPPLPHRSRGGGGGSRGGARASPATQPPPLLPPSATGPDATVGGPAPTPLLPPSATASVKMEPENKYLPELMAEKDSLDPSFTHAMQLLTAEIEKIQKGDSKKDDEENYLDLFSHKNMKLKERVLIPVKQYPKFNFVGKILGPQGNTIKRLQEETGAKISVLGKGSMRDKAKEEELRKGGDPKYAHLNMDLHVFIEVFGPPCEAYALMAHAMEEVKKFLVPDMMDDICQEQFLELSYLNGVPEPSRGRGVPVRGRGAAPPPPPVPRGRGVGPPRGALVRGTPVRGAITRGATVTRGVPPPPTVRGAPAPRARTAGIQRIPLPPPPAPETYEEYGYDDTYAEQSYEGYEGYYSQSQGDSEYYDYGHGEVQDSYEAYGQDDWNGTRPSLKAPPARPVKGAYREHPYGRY

[6] = target: T2, proteins of HEK293T cells transiently overexpressing caspase-6 (Homo sapiens, UniProt P04075); experiment: as above; details: Comp; protein ALDOA P04075
T2 sequence (P04075 1-364): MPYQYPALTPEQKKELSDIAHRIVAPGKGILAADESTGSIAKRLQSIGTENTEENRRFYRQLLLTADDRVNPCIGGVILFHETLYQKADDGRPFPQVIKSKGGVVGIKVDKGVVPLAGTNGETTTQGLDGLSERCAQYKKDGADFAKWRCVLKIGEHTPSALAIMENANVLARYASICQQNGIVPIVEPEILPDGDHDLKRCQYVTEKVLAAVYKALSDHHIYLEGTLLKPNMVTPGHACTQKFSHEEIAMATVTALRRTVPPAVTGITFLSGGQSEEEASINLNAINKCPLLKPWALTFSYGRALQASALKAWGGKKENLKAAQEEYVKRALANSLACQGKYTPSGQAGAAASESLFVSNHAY

[7] = target: proteins of HEK293T cells transiently overexpressing caspase-6 (Homo sapiens, UniProt Q9Y230); experiment: as above; details: Comp; protein RUVBL2 Q9Y230
Chain of proteins of HEK293T cells transiently overexpressing caspase-6 (Homo sapiens, UniProt Q9Y230) (Q9Y230 whole entry): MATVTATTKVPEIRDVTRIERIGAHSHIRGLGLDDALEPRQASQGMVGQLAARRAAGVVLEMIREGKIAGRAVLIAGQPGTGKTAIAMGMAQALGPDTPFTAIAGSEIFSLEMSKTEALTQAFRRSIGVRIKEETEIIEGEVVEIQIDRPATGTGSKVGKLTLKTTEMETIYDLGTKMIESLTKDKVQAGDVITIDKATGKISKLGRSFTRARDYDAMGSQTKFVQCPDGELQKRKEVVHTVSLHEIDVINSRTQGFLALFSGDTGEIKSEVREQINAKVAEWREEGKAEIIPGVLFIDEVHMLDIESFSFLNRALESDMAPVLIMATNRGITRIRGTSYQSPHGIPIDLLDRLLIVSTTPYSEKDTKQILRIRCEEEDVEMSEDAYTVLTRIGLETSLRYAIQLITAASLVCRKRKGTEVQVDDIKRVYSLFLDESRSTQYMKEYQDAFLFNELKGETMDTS

[8] = target: proteins of HEK293T cells transiently overexpressing caspase-6 (Homo sapiens, UniProt P60842); experiment: as above; details: Comp; protein EIF4A1 P60842
Chain of proteins of HEK293T cells transiently overexpressing caspase-6 (Homo sapiens, UniProt P60842) (P60842 whole entry): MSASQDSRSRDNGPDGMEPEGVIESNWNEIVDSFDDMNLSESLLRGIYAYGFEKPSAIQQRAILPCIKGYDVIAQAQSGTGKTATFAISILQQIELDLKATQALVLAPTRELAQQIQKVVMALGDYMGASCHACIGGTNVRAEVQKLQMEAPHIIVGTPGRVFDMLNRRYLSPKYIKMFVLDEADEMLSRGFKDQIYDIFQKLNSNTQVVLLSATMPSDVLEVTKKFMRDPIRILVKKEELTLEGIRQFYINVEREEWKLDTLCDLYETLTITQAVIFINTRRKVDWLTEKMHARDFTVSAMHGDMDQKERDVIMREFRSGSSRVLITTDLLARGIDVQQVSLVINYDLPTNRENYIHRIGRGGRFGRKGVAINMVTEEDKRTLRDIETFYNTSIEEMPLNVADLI

[9] = target: proteins of HEK293T cells transiently overexpressing caspase-6 (Homo sapiens, UniProt P40938); experiment: as above; details: Comp; protein RFC3 P40938
Chain of proteins of HEK293T cells transiently overexpressing caspase-6 (Homo sapiens, UniProt P40938) (P40938 whole entry): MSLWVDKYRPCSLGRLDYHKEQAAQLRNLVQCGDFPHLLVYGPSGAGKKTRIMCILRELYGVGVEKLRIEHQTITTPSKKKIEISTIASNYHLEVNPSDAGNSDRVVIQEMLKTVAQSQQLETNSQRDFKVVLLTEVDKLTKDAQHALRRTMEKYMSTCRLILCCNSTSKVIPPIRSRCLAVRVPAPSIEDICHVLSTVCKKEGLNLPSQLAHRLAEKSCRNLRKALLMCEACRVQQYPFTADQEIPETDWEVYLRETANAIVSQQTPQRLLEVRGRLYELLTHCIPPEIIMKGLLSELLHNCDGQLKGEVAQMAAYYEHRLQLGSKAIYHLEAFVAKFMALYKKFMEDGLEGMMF

[10] = target: T3, proteins of HEK293T cells transiently overexpressing caspase-6 (Homo sapiens, UniProt P14324); experiment: as above
T3 sequence (P14324 1-419): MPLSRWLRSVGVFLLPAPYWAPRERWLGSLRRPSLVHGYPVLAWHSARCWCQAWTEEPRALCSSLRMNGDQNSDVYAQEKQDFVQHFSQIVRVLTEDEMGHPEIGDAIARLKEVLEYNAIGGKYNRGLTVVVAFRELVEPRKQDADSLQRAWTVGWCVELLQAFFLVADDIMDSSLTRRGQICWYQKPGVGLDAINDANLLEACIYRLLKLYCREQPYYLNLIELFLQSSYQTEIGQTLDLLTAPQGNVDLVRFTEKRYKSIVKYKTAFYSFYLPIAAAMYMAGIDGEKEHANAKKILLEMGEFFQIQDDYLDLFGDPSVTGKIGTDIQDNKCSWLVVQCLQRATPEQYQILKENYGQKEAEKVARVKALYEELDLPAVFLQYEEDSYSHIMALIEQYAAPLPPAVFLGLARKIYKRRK

[11] = target: proteins of HEK293T cells transiently overexpressing caspase-6 (Homo sapiens, UniProt P09874); experiment: as above; details: Comp; protein PARP1 P09874
Chain of proteins of HEK293T cells transiently overexpressing caspase-6 (Homo sapiens, UniProt P09874) (P09874 whole entry): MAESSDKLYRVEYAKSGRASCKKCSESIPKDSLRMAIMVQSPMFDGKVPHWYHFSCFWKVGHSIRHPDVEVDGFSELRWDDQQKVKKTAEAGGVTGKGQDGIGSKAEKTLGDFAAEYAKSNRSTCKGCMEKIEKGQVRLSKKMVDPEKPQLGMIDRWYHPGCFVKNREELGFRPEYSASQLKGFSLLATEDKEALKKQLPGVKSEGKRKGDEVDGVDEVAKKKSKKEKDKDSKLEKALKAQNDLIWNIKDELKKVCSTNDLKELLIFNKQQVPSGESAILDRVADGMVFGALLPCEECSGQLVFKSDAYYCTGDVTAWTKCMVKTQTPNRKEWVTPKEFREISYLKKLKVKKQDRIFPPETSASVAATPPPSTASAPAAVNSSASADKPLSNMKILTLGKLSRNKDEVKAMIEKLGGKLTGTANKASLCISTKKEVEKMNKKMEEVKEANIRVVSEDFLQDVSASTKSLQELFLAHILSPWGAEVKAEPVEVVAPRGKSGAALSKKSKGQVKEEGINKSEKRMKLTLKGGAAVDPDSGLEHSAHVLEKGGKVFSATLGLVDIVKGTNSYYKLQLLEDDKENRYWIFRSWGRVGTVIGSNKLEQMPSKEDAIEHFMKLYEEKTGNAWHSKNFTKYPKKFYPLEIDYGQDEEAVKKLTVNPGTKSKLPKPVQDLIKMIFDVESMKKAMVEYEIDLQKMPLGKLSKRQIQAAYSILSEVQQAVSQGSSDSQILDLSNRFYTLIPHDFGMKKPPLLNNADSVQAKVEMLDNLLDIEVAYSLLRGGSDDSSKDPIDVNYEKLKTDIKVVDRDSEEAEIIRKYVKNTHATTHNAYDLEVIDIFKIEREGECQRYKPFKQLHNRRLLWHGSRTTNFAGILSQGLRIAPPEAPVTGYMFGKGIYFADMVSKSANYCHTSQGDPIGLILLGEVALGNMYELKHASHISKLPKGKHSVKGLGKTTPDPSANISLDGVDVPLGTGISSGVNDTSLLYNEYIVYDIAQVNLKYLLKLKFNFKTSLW

[12] = target: proteins of HEK293T cells transiently overexpressing caspase-6 (Homo sapiens, UniProt P63261); experiment: as above; details: Comp; protein ACTG1 P63261
[13] = protein FDPS (P14324), Exp Comp, analysis C6, p 0.2500, 4 peptides

Chain of caspase-6 (P55212 194-293): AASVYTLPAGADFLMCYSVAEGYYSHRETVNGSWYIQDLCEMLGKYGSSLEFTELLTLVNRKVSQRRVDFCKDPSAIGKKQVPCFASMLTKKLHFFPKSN
Chain of caspase-6 (P55212 30-179): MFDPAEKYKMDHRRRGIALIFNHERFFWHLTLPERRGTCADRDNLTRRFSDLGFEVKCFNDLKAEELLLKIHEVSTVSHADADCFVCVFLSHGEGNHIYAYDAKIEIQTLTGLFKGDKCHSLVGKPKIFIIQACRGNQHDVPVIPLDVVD
Chain of caspase-2 (C2) (P42575 whole entry): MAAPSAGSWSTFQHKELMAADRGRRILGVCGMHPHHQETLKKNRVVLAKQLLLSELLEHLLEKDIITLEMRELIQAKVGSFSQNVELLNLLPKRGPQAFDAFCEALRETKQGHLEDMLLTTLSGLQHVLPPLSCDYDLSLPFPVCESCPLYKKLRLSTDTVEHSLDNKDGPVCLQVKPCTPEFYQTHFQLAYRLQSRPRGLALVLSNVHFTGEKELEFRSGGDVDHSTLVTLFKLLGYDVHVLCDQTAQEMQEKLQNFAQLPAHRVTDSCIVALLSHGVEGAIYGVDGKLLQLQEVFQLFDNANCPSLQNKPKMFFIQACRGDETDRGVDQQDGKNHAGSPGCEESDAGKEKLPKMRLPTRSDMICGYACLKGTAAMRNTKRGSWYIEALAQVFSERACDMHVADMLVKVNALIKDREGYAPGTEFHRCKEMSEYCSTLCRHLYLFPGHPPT

| SMILES | IC50 (caspase-6) [nM] | activity against C2 (in words) (caspase-2 (C2)) | activity against C3 (in words) (caspase-3 (C3)) | IC50 (caspase-3 (C3); read-out: Casp-3 IC50) [nM] | IC50 [1] [nM] | effect on the other caspase isoforms (in words) (human caspases C1–C10) | enrich.exp.med [2] | enrich.exp.med [3] | enrich.exp.med [4] | enrich.exp.med [5] | enrich.exp.med [6] | enrich.exp.med [7] | enrich.exp.med [8] | enrich.exp.med [9] | enrich.exp.med ([10]; Comp, protein FDPS P14324) | enrich.exp.med.lin [10, 13] | enrich.exp.med.log2 [10, 13] | enrich.exp.med [11] | enrich.exp.med [12] |
| --- | --- | --- | --- | --- | --- | --- | --- | --- | --- | --- | --- | --- | --- | --- | --- | --- | --- | --- | --- |
| C#CCOc1ccc([C@@H]2C[C@@H](C(=O)Nc3ccc(OC(F)(F)F)cc3)CN(S(=O)(=O)C=C)C2)cc1 (relative stereo) [13-t] | 48 ± 2 |  |  |  |  |  |  |  |  |  |  |  |  |  |  |  |  |  |  |
| C=CS(=O)(=O)N1C[C@H](C(=O)Nc2ccc(OC(F)(F)F)cc2)C[C@@H](c2ccccc2)C1 [3a] |  | lack of activity | lack of activity | > 500000 | 170 ± 4 | little, if any, effect | 0.6295 | 0.7326 | 0.6316 | 0.748 | 0.6768 | 0.7589 | 0.5985 | 0.6326 | 1.087 | 2.124 | 1.087 | 0.6484 | 0.7588 |
